{
  "source": "patent US20110294729A1",
  "about": "“Novel Insulin Analogues” (Novo Nordisk A/S, priority 2008, published 2011)",
  "key": {"[1]": {"conditions": "according to WO 90/01038; cited from earlier work"}, "[2]": {"biological_target": "T1, human IR-A (Homo sapiens, UniProt P06213)", "T1 construct": "solubilized human IR (holoreceptor) semipurified by wheat germ agglutinin purification; made in house; host or cells: baby hamster kidney (BHK) cells, stably transfected (pZem vector)", "T1 sequence (P06213 28-746 isoform P06213-2 limits assumed)": "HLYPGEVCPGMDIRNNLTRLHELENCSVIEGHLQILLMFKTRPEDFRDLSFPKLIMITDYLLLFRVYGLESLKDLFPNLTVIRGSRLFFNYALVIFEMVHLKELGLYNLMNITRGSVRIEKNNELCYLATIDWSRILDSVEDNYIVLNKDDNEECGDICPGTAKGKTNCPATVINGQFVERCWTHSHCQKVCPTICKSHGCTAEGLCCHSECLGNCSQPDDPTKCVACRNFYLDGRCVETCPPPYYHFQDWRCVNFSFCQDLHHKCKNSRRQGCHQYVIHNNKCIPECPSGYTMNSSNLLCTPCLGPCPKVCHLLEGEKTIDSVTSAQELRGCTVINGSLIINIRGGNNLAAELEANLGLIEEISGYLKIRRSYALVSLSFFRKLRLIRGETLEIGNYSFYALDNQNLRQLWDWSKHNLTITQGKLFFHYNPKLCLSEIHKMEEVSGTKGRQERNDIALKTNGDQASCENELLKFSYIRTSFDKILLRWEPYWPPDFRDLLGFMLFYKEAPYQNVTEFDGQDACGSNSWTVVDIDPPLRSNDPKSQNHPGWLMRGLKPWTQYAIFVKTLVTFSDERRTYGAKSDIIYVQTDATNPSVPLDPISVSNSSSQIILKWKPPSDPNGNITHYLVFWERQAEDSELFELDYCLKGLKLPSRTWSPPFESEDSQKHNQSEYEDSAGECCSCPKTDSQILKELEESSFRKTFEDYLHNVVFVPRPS", "T1 sequence (P06213 763-1382 partner limits assumed)": "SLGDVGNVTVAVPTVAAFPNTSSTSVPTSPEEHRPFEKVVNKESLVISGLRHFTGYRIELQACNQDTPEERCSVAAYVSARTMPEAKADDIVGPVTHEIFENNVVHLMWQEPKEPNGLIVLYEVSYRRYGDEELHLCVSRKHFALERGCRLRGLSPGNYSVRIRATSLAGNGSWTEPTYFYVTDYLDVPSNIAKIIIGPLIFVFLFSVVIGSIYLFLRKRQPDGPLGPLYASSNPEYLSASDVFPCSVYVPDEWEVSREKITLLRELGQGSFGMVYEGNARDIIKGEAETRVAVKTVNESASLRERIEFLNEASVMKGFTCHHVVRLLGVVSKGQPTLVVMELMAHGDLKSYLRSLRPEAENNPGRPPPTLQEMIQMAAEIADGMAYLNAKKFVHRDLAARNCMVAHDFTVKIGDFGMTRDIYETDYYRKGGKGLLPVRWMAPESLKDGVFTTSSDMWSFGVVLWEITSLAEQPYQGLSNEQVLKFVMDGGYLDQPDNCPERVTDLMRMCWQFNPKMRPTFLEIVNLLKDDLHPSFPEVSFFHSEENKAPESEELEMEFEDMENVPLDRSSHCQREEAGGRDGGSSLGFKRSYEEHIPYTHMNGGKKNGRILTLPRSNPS", "assay": "Insulin receptor binding assay (SPA, solubilised receptor), hIR-A", "conditions": "hIR-A affinity relative to human insulin; analogue directly in yeast supernatant; SPA competition with [125I]A14Tyr-labelled insulin", "experimental": "(§1) Competition binding experiments were performed in 96-well plates (polystyrene Optiplate-96, PerkinElmer) on an Eppendorf epMotion 5075 robot using solubilized human IR (holoreceptor) semipurified by wheat germ agglutinin purification from baby hamster kidney (BHK) cells, which were stably transfected with the pZem vector containing the human IR-A or IR-B insert."}, "[3]": {"biological_target": "T2, human IR-B (Homo sapiens, UniProt P06213)", "T2 construct": "solubilized human IR (holoreceptor) semipurified by wheat germ agglutinin purification; made in house; host or cells: baby hamster kidney (BHK) cells, stably transfected (pZem vector)", "T2 sequence (P06213 28-758 limits assumed)": "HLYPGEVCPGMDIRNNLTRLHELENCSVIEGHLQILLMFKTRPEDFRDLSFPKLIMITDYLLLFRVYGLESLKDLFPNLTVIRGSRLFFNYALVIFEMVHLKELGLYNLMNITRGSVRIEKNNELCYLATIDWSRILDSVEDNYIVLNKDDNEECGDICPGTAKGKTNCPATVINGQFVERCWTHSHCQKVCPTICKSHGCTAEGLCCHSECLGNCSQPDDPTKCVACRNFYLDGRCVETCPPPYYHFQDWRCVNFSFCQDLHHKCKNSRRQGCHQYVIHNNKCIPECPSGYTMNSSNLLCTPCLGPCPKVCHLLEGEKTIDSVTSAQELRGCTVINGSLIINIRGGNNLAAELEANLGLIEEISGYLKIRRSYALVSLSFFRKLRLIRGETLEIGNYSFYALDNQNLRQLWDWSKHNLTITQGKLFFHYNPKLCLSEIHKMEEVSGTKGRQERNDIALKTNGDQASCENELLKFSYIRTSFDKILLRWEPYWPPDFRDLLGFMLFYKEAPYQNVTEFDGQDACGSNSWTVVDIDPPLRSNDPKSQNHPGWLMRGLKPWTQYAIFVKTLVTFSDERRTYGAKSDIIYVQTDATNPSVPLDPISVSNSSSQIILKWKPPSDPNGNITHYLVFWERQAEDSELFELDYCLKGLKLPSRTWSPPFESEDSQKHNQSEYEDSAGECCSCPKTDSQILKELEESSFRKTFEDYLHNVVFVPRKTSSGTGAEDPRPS", "T2 sequence (P06213 763-1382 partner limits assumed)": "as the sequence (P06213 763-1382 partner limits assumed) above", "assay": "Insulin receptor binding assay (SPA, solubilised receptor), hIR-B", "experimental": "as §1"}, "[4]": {"test_system": "insulin receptor A-isoform and B-isoform", "conditions": "cited from earlier work"}},
  "data": [
    {"substance": "His^B25, Asp^B28, desB30 human insulin", "values": [
      {"measurement": "biological activity", "setting": "[1]", "value": "high biological activity"}
    ]},
    {"substance": "[A8H, B25H, B27E, desB30] human insulin [Example 4]", "values": [
      {"measurement": "hIR-A [% of HI]", "setting": "[2]", "value": "67 ± 3 % of HI"},
      {"measurement": "Ratio B/A", "setting": "[3]; Example 8 table, ratio of relative hIR-B affinity to relative hIR-A affinity", "value": 2.1},
      {"measurement": "hIR-B [% of HI] (%)", "setting": "[3]; hIR-B affinity relative to human insulin, analogue directly in yeast supernatant, SPA competition with [125I]A14Tyr-labelled insulin", "value": "140 ± 5 % of HI"}
    ]},
    {"substance": "His^B25 human insulin B30 amide", "values": [
      {"measurement": "biological activity", "setting": "[1]", "value": "high biological activity"}
    ]},
    {"substance": "Human insulin", "values": [
      {"measurement": "affinity for insulin receptor A-isoform versus B-isoform (in words)", "setting": "[4]; EMBO Journal 9 (1990), 2409-13", "value": "slightly higher affinity for the insulin receptor A-isoform than for the B-isoform"}
    ]},
    {"substance": "His^B25 human insulin", "values": [
      {"measurement": "biological activity", "setting": "[1]", "value": "high biological activity"}
    ]},
    {"substance": "IGF-II", "values": [
      {"measurement": "affinity for IR-A versus IR-B", "setting": "[4]; higher affinity for IR-A than for IR-B", "value": "40-50 fold"}
    ]}
  ]
}
